Source: the NIST ThermoML archive (doi:10.1021/je0499317)

Assay: excess molar enthalpy (molar enthalpy of mixing); xn = mol fraction of the nth substance listed
Conditions: 298.15 K, 101.33 kPa, Liquid

CCCCCC#N [hexanenitrile] + C[S+](C)[O-]
Conditions | excess molar enthalpy [kcal/mol]
x2 = 0.07452 | 0.0546
x2 = 0.09271 | 0.0665
x2 = 0.1474 | 0.1
x2 = 0.1952 | 0.125
x2 = 0.2583 | 0.154
x2 = 0.3135 | 0.174
x2 = 0.3528 | 0.185
x2 = 0.4343 | 0.201
x2 = 0.4908 | 0.207
x2 = 0.5806 | 0.205
x2 = 0.7154 | 0.181
x2 = 0.842 | 0.129
x2 = 0.8892 | 0.0984
x2 = 0.9559 | 0.0454
x2 = 0.9855 | 0.0149

CCCCCCCCCCCC#N [n-dodecanenitrile] + CSCS(C)=O
Conditions | excess molar enthalpy [kcal/mol]
x2 = 0.03008 | 0.0375
x2 = 0.03781 | 0.0476
x2 = 0.09203 | 0.107
x2 = 0.1008 | 0.114
x2 = 0.1789 | 0.178
x2 = 0.207 | 0.198
x2 = 0.2152 | 0.204
x2 = 0.3197 | 0.261
x2 = 0.3517 | 0.27
x2 = 0.5024 | 0.3
x2 = 0.5857 | 0.301
x2 = 0.7084 | 0.277
x2 = 0.8115 | 0.223
x2 = 0.8979 | 0.148
x2 = 0.9592 | 0.0667
x2 = 0.9865 | 0.0238

CCCCCCCCCCCC#N [n-dodecanenitrile] + C[S+](C)[O-]
Conditions | excess molar enthalpy [kcal/mol]
x2 = 0.02506 | 0.0231
x2 = 0.02612 | 0.0261
x2 = 0.07491 | 0.0764
x2 = 0.09988 | 0.104
x2 = 0.1665 | 0.168
x2 = 0.1791 | 0.185
x2 = 0.1948 | 0.194
x2 = 0.2522 | 0.243
x2 = 0.3366 | 0.293
x2 = 0.4308 | 0.327
x2 = 0.562 | 0.341
x2 = 0.7592 | 0.298
x2 = 0.8602 | 0.231
x2 = 0.8956 | 0.193
x2 = 0.9461 | 0.114
x2 = 0.9649 | 0.08
x2 = 0.9886 | 0.0287

CCCCCCCCC#N [nonanenitrile] + CSCS(C)=O
Conditions | excess molar enthalpy [kcal/mol]
x2 = 0.01839 | 0.0199
x2 = 0.03954 | 0.0411
x2 = 0.08357 | 0.0801
x2 = 0.1186 | 0.108
x2 = 0.175 | 0.149
x2 = 0.2257 | 0.178
x2 = 0.2686 | 0.199
x2 = 0.3721 | 0.232
x2 = 0.3812 | 0.234
x2 = 0.4654 | 0.25
x2 = 0.5564 | 0.253
x2 = 0.6409 | 0.241
x2 = 0.779 | 0.195
x2 = 0.8417 | 0.155
x2 = 0.8806 | 0.126
x2 = 0.9058 | 0.106
x2 = 0.9564 | 0.0531
x2 = 0.9784 | 0.0266

CCCCCCCCC#N [nonanenitrile] + C[S+](C)[O-]
Conditions | excess molar enthalpy [kcal/mol]
x2 = 0.05896 | 0.0512
x2 = 0.07322 | 0.0623
x2 = 0.09784 | 0.0826
x2 = 0.1285 | 0.107
x2 = 0.1721 | 0.141
x2 = 0.1898 | 0.153
x2 = 0.2365 | 0.183
x2 = 0.2408 | 0.187
x2 = 0.2698 | 0.204
x2 = 0.2836 | 0.211
x2 = 0.3841 | 0.252
x2 = 0.4577 | 0.272
x2 = 0.5425 | 0.285
x2 = 0.5442 | 0.285
x2 = 0.5569 | 0.285
x2 = 0.703 | 0.271
x2 = 0.7734 | 0.245
x2 = 0.8496 | 0.197
x2 = 0.8991 | 0.15
x2 = 0.939 | 0.103
x2 = 0.9712 | 0.0531
x2 = 0.9917 | 0.017

CCCCCCCC#N [octanenitrile] + CSCS(C)=O
Conditions | excess molar enthalpy [kcal/mol]
x2 = 0.02232 | 0.0208
x2 = 0.06732 | 0.064
x2 = 0.1083 | 0.0967
x2 = 0.16 | 0.133
x2 = 0.2232 | 0.17
x2 = 0.3476 | 0.216
x2 = 0.5207 | 0.237
x2 = 0.6218 | 0.228
x2 = 0.7086 | 0.206
x2 = 0.7769 | 0.177
x2 = 0.869 | 0.122
x2 = 0.9129 | 0.0878
x2 = 0.9266 | 0.0774
x2 = 0.9548 | 0.0497
x2 = 0.9879 | 0.0154

CCCCCCCC#N [octanenitrile] + C[S+](C)[O-]
Conditions | excess molar enthalpy [kcal/mol]
x2 = 0.02667 | 0.0195
x2 = 0.037 | 0.0293
x2 = 0.1176 | 0.0892
x2 = 0.18 | 0.134
x2 = 0.2399 | 0.169
x2 = 0.3293 | 0.213
x2 = 0.3877 | 0.233
x2 = 0.4654 | 0.251
x2 = 0.552 | 0.261
x2 = 0.6233 | 0.256
x2 = 0.7022 | 0.244
x2 = 0.8267 | 0.189
x2 = 0.8785 | 0.149
x2 = 0.9546 | 0.068
x2 = 0.9616 | 0.057
x2 = 0.992 | 0.0135

CCCCCCCCCCCCCC#N [tetradecanenitrile] + CSCS(C)=O
Conditions | excess molar enthalpy [kcal/mol]
x2 = 0.03538 | 0.0412
x2 = 0.05372 | 0.0689
x2 = 0.08438 | 0.103
x2 = 0.1289 | 0.153
x2 = 0.1565 | 0.177
x2 = 0.1984 | 0.21
x2 = 0.3348 | 0.281
x2 = 0.505 | 0.304
x2 = 0.6332 | 0.291
x2 = 0.6721 | 0.283
x2 = 0.8155 | 0.229
x2 = 0.8867 | 0.172
x2 = 0.9123 | 0.145
x2 = 0.9566 | 0.0871
x2 = 0.9858 | 0.0352

CCCCCCCCCCCCCC#N [tetradecanenitrile] + C[S+](C)[O-]
Conditions | excess molar enthalpy [kcal/mol]
x2 = 0.02407 | 0.0307
x2 = 0.06045 | 0.0671
x2 = 0.1219 | 0.133
x2 = 0.1415 | 0.154
x2 = 0.2193 | 0.219
x2 = 0.2527 | 0.244
x2 = 0.3063 | 0.279
x2 = 0.4181 | 0.323
x2 = 0.4877 | 0.339
x2 = 0.6186 | 0.345
x2 = 0.7619 | 0.311
x2 = 0.8716 | 0.229
x2 = 0.8962 | 0.201
x2 = 0.911 | 0.176
x2 = 0.9532 | 0.109
x2 = 0.9692 | 0.0793
x2 = 0.9809 | 0.0491
